The inhibition is how much of the control response was suppressed. Low values mean little suppression, high ones strong suppression. A word on the IC50: it is the concentration at which inhibition is half-maximal. As a reminder, the Ki is a measure of affinity in units of concentration, obtained from inhibition or displacement. A high value points to weaker binding.

The text below walks through data of paper PMC9000592 (Molecules, 2022).

Read-outs that look alike come from different tables or passages of the source. Bounds are passed on as bounds.

Series [1] concerns the target T1, CYP3A2 (Rattus norvegicus, UniProt P05183).
T1 sequence (P05183 1-504): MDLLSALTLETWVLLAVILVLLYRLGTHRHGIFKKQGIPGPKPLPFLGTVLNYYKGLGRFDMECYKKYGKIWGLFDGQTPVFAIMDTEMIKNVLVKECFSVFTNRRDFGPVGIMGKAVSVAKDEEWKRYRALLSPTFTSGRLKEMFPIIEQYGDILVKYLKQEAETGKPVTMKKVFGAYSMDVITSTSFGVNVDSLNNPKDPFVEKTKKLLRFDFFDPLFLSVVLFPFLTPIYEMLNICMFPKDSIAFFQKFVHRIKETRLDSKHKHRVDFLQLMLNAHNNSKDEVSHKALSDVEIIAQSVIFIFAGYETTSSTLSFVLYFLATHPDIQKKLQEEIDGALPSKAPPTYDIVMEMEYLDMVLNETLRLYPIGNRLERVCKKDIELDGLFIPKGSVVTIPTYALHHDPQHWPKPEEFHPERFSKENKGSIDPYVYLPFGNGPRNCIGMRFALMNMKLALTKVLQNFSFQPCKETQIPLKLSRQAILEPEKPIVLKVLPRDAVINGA
Put plainly: Inhibition of CYP3A2-mediated dexamethasone 6β-hydroxylation in rat liver microsomes (HPLC). Particulars: for inhibition mode of CYP3A2 enzyme activity: Lineweaver–Burk plot, rat liver microsomes; for Vmax for 6β-hydroxylase / Clint (hepatic intrinsic clearance) for 6β-hydroxylase: dexamethasone substrate. Here is the method:
The rates of 6β-hydroxydexamethasone formation were determined using High-Performance Liquid Chromatography (HPLC) technique.
The percentage of organic solvent in the assay was not more than 1% v/v.
The quenched reaction masses were transferred to the new vials and substrate and metabolite were double extracted with ethyl acetate (3 mL) and diethyl ether (3 mL), respectively. The organic extracts were evaporated to dryness. The mobile phase (70% acetonitrile and 30% water, v/v) was used to dissolve the residues. Then, 10 µL of the solution was injected for HPLC analysis.
Analysis of variance (ANOVA) test was also performed (at 0.05 significance level).
Schwarz criterion (SC) and Akaike information criterion (AIC) were acquired from nonlinear regression analysis. IC50 values were calculated by nonlinear regression analysis and GraphPad Prism software was used for this purpose.
The Lineweaver–Burk plot was used to assess the inhibition parameters such as Km, Vmax, and Clint.
Background: Microsomes from liver hold many membrane-bound enzymes, among them those of drug oxidation.

Series [2] deals with fatty acid amide hydrolase. Particulars: hydrolysis of arachidonoylethanolamide; cited from earlier work.
The test system of series [3] is cytokine expression. The arrangement: method as in PMID 31286365. Particulars: in vitro; cited from earlier work.
The conditions of series [4]: cited from earlier work.
In series [5] the test system is trimethadione metabolism. To be noted: short-term administration in rats; cited from earlier work.
Series [6] deals with ATPase. More on the design: method as in PMID 2992525. To be noted: in vitro, up to 60 min at pH 6.1 or pH 7.4; cited from earlier work.
On the set-up of series [7]: method as in PMID 29752643. Particulars: several daily oral doses of omeprazole 40 mg; cited from earlier work.
Series [8] deals with bufuralol 1′-hydroxylation. The arrangement: method as in PMID 15258107. Particulars: cited from earlier work.
Series [9] deals with CYP3A4. Particulars: cited from earlier work.
Series [10] addresses T1, CYP3A2. More on the design: The pooled liver microsomes from male rats (Sprague Dawley) were purchased from Merck; tissue Merck; host or cells: pooled liver microsomes from male Sprague Dawley rats. Particulars: previous study; cited from earlier work.
The test system of series [11] is COVID-19. More on the design: method as in PMID 33732750. Particulars: cited from earlier work.
[12] abbreviates: male, Sprague Dawley, rat, microsomes, pH 7.4.

Turning to `CC(C)Cc1ccc(C(C)C(=O)O)cc1` (stereo not drawn) [Ibuprofen, ibuprofen], in series [1], the “inhibition mode of CYP3A2 enzyme activity” value (shortened to “inhibition mode”) is reported as “non-competitive”. Also, in series [1] (inhibitor 50 µM), the “Vmax for 6β-hydroxylase” value is listed as 0.0116 ± 0.608 × 10^−3 µM^−1∙min^−1. In addition, the “Vmax for 6β-hydroxylase” value in [1] (inhibitor 100 µM) is 0.0099 ± 0.040 × 10^−3 µM^−1∙min^−1. Moreover, the “Vmax for 6β-hydroxylase” value in series [1] (inhibitor 200 µM) is given as 0.0092 ± 0.100 × 10^−3 µM^−1∙min^−1. Also, in [1] (setting [12]), the inhibition at 40 min, 50 µM was 23 ± 4.34%; the inhibition at 40 min, 100 µM is 34.73 ± 0.336%; the inhibition at 40 min, 200 µM is 38.9 ± 0.476%. The IC50 in series [2] was 270 µM. In addition, the “effect on cytokine expression” value in series [3] is “no inhibitory effect”. Besides, in series [4], the “amounts found in plasma” value is 49 to 242 µM. In series [4] (read-out: peak plasma concentrations (Cmax), after two single doses of 200 mg from two different ibuprofen preparations), the Cmax was 110 to 150 µM. Besides, the “effect on trimethadione metabolism” value in [5] was “did not affect”.
As for `COc1ccc2[nH]c([S+]([O-])Cc3ncc(C)c(OC)c3C)nc2c1` (stereo not drawn) [Omeprazole, omeprazole], in series [1], half-maximal inhibition (IC50) was put at 78.35 ± 0.46 µM, the affinity corresponds to a Ki of 39.18 ± 0.23 µM, the “inhibition mode” value is given as “uncompetitive” and the “inhibition of CYP3A2 at concentrations lower than 30 µM” value is “No inhibition”. For the same compound, in series [1] (inhibitor 30 µM), the “Clint (hepatic intrinsic clearance) for 6β-hydroxylase” value (“Clint (hepatic intrinsic clearance)” for short) is 0.0009 ± 0.091 × 10^−3 µM^−2∙min^−1 and the “Vmax for 6β-hydroxylase” value was 0.0080 ± 0.346 × 10^−3 µM^−1∙min^−1. In [1] (inhibitor 50 µM), the “Clint (hepatic intrinsic clearance)” value is recorded as 0.0010 ± 0.093 × 10^−3 µM^−2∙min^−1 and the “Vmax for 6β-hydroxylase” value is given as 0.0062 ± 0.473 × 10^−3 µM^−1∙min^−1. In [1] (inhibitor 100 µM), the “Clint (hepatic intrinsic clearance)” value is on record as 0.0011 ± 0.066 × 10^−3 µM^−2∙min^−1 and the “Vmax for 6β-hydroxylase” value is on record as 0.0042 ± 0.058 × 10^−3 µM^−1∙min^−1. The “inhibition of the ATPase activity” value in series [6] is listed as “no substantial inhibition”. Moreover, in series [7], the “effect on the pharmacokinetics of roxadustat” value is listed as “no substantial effect”. Further, the IC50 in series [8] is over 200 µM. Moreover, the therapeutic plasma concentration in series [4] (no reference given) is 1.1 to 2.0 µM. In addition, the Cmax in [4] (several daily oral doses of 40 mg) is recorded as 1207 ng/mL.
With `CCC(CC)COC(=O)[C@H](C)N[P@](=O)(OC[C@H]1O[C@@](C#N)(c2ccc3c(N)ncnn23)[C@H](O)[C@@H]1O)Oc1ccccc1` [Remdesivir, remdesivir], in series [1], the IC50 was found to be 45.007 ± 0.016 µM, the Ki stood at 22.504 ± 0.008 µM, the “inhibition mode” value is “mixed” and the “inhibition of CYP3A2 at concentrations lower than 30 µM” value is listed as “No inhibition”. In addition, in [1] (inhibitor 30 µM), the “Clint (hepatic intrinsic clearance)” value was 0.0006 ± 0.011 × 10^−3 µM^−2∙min^−1 and the “Vmax for 6β-hydroxylase” value is given as 0.0122 ± 0.306 × 10^−3 µM^−1∙min^−1. Also, in series [1] (inhibitor 50 µM), the “Clint (hepatic intrinsic clearance)” value is on record as 0.0006 ± 0.018 × 10^−3 µM^−2∙min^−1 and the “Vmax for 6β-hydroxylase” value is recorded as 0.0146 ± 0.586 × 10^−3 µM^−1∙min^−1. Besides, in series [1] (inhibitor 100 µM), the “Clint (hepatic intrinsic clearance)” value is given as 0.0010 ± 0.025 × 10^−3 µM^−2∙min^−1 and the “Vmax for 6β-hydroxylase” value is 0.0132 ± 0.153 × 10^−3 µM^−1∙min^−1. Further, the plasma concentration range in [4] (after a single dose of 3–225 mg) is 0.1 to 7.3 µM. In addition, in series [9], the “inhibition of CYP3A4” value is recorded as “weak inhibitor”.
In the case of `CC(=O)Oc1ccccc1C(=O)O` [aspirin], the “inhibition of CYP3A2 isoenzyme activity” value in [10] is reported as “weak competitive inhibition”.
With `C[C@@H]1C[C@H]2[C@@H]3CCC4=CC(=O)C=C[C@]4(C)[C@@]3(F)[C@@H](O)C[C@]2(C)[C@@]1(O)C(=O)CO` [dexamethasone], the results for the “reduction of death rate” value in series [11] (nonventilated patients with supplemental oxygen) and in series [11] (ventilated intensive care unit (ICU) patients) were 20% and 35%, respectively.
